Data as given in ChEMBL document CHEMBL4834432, “Diverse Prenylated Bibenzyl Enantiomers from the Chinese Liverwort Radula apiculata and Their Cytotoxic Activities” (J Nat Prod, 2021).
Where a name gives a salt, the structure may show the parent alone. Activity calls are given as the source filed them. No cut-off for these calls is given here.

Experiments:
PC-3 [1] = experiment: Cytotoxicity against human PC-3 cells assessed as cell viability inhibition for 48 hrs by MTT assay; type: functional, cell-based; conditions: PC-3, 48 h
A549 = experiment: Cytotoxicity against human A549 cells assessed as cell viability inhibition for 48 hrs by MTT assay; type: functional, cell-based; conditions: A549, 48 h
MCF7 = experiment: Cytotoxicity against human MCF-7 cells assessed as cell viability inhibition for 48 hrs by MTT assay; type: functional, cell-based; conditions: MCF7, 48 h
NCI-H1299 = experiment: Cytotoxicity against human […] cells assessed as cell viability inhibition for 48 hrs by MTT assay; type: functional, cell-based; conditions: NCI-H1299, 48 h
PC-3 [2] = experiment: Induction of apoptosis in human PC-3 cells assessed as nuclear shrinkage at 2 uM incubated for 24 hrs by DAPI staining analysis; type: functional, cell-based
PC-3 [3] = experiment: Induction of apoptosis in human PC-3 cells assessed as granular apoptotic body formation at 2 uM incubated for 24 hrs by DAPI staining analysis; type: functional, cell-based
PC-3 [4] = experiment: Induction of apoptosis in human PC-3 cells assessed as early apoptotic cells at 2 uM incubated for 24 hrs by annexin V/propidium iodide based flow cytometry (reference value: 2.71%); type: functional
PC-3 [5] = experiment: Induction of apoptosis in human PC-3 cells assessed as early apoptotic cells at 4 uM incubated for 24 hrs by annexin V/propidium iodide based flow cytometry (reference value: 2.71%); type: functional
PC-3 [6] = experiment: Induction of apoptosis in human PC-3 cells assessed as early apoptotic cells at 6 uM incubated for 24 hrs by annexin V/propidium iodide based flow cytometry (reference value: 2.71%); type: functional
PC-3 [7] = experiment: Induction of apoptosis in human PC-3 cells assessed as late apoptotic cells at 2 uM incubated for 24 hrs by annexin V/propidium iodide based flow cytometry (reference value: 3.89%); type: functional
PC-3 [8] = experiment: Induction of apoptosis in human PC-3 cells assessed as late apoptotic cells at 4 uM incubated for 24 hrs by annexin V/propidium iodide based flow cytometry (reference value: 3.89%); type: functional
PC-3 [9] = experiment: Induction of apoptosis in human PC-3 cells assessed as late apoptotic cells at 6 uM incubated for 24 hrs by annexin V/propidium iodide based flow cytometry (reference value: 3.89%); type: functional
PC-3 [10] = experiment: Induction of apoptosis in human PC-3 cells assessed as necrotic cells at 2 uM incubated for 24 hrs by annexin V/propidium iodide based flow cytometry (reference value: 1.93%); type: functional
PC-3 [11] = experiment: Induction of apoptosis in human PC-3 cells assessed as necrotic cells at 4 uM incubated for 24 hrs by annexin V/propidium iodide based flow cytometry (reference value: 1.93%); type: functional
PC-3 [12] = experiment: Induction of apoptosis in human PC-3 cells assessed as necrotic cells at 6 uM incubated for 24 hrs by annexin V/propidium iodide based flow cytometry (reference value: 1.93%); type: functional
PC-3 [13] = experiment: Induction of apoptosis in human PC-3 cells assessed as mitochondrial membrane potential loss at 2 uM incubated for 24 hrs by JC1 staining based flow cytometric analysis (reference value: 100%); type: functional, cell-based
PC-3 [14] = experiment: Induction of apoptosis in human PC-3 cells assessed as mitochondrial membrane potential loss at 4 uM incubated for 24 hrs by JC1 staining based flow cytometric analysis (reference value: 100%); type: functional, cell-based
PC-3 [15] = experiment: Induction of apoptosis in human PC-3 cells assessed as mitochondrial membrane potential loss at 6 uM incubated for 24 hrs by JC1 staining based flow cytometric analysis (reference value: 100%); type: functional, cell-based
PC-3 [16] = experiment: Induction of apoptosis in human PC-3 cells assessed as increase in Bax protein level incubated for 24 hrs by Western blot analysis; type: functional, cell-based; conditions: dose 2-6 µM
PC-3 [17] = experiment: Induction of apoptosis in human PC-3 cells assessed as increase in cleaved caspase-9 level at 2 to 6 uM incubated for 24 hrs by Western blot analysis; type: functional, cell-based; conditions: dose 2-6 µM
PC-3 [18] = experiment: Induction of apoptosis in human PC-3 cells assessed as increase in cleaved PARP level at 2 to 6 uM incubated for 24 hrs by Western blot analysis; type: functional, cell-based; conditions: dose 2-6 µM

Compound | IC50 (PC-3 [1]) [µM] | IC50 (A549) [µM] | IC50 (MCF7) [µM] | IC50 (NCI-H1299) [µM] | further results
CC1(C)Oc2cc(O)cc(CCc3ccccc3)c2C2OC3c4c(CCc5ccccc5)cc(O)cc4OC(C)(C)C3C21 (racemic) | 3.5 | 3.1 | 5.8 | 6.7 | –
CC1(C)C=Cc2c(CCc3ccccc3)cc(O)c(C3CC(C)(C)Oc4cc(O)cc(CCc5ccccc5)c43)c2O1 (racemic) | 8.2 | 6.5 | 5.7 | 8.2 | –
CC12CC(c3c(CCc4ccccc4)cc(O)cc3O1)C1C(C2)c2c(CCc3ccccc3)cc(O)cc2OC1(C)C (racemic) | 5.4 | 5.8 | 4.6 | 7.2 | –
CC(C)=CCc1c(O)cc2c(c1CCc1ccccc1)C1(C(=O)O2)c2c(CCc3ccccc3)cc(O)cc2OC1(C)C (racemic) | 1.5 | 2.8 | 3.6 | 6.9 | –
CC1(C)Oc2cc(O)cc(CCc3ccccc3)c2C(C2=Cc3c(CCc4ccccc4)cc(O)cc3OC2(C)C)C1=O (racemic) | 4.1 | 4.5 | 4.9 | 6.4 | –
CC1(C)Oc2cc(O)cc(CCc3ccccc3)c2C2=C1OC1c3c(CCc4ccccc4)cc(O)cc3OC(C)(C)C21 (racemic) | 3.4 | 3.7 | 5 | 6.6 | Activity (PC-3 [2]): Active; Activity (PC-3 [3]): Active; Activity (PC-3 [4]): 2.65%; Activity (PC-3 [5]): 1.4%; Activity (PC-3 [6]): 1.82%; Activity (PC-3 [7]): 5.68%; Activity (PC-3 [8]): 7.81%; Activity (PC-3 [9]): 60.74%; Activity (PC-3 [10]): 4.12%; Activity (PC-3 [11]): 2.55%; Activity (PC-3 [12]): 18.81%; Activity (PC-3 [13]): Active; Activity (PC-3 [14]): Active; Activity (PC-3 [15]): Active; Activity (PC-3 [16]): Active; Activity (PC-3 [17]): Active; Activity (PC-3 [18]): Active
CC1=CC2c3c(CCc4ccccc4)cc(O)cc3OC(c3c(O)cc(O)cc3CCc3ccccc3)C2C(C)(C)C1 (racemic) | 8.2 | – | 9.8 | – | –
CC1(C)Oc2cc(O)cc(CCc3ccccc3)c2C2=C1O[C@H]1c3c(CCc4ccccc4)cc(O)cc3OC(C)(C)[C@@H]21 | > 10 | > 10 | > 10 | > 10 | –
COc1cccc2c1C(=O)c1c(O)c3c(c(O)c1C2=O)C[C@@](O)(C(=O)CO)C[C@@H]3O[C@H]1C[C@H](N)[C@H](O)[C@H](C)O1 [DOXORUBICIN HYDROCHLORIDE] | 0.4 | 1.2 | – | 4.7 | –
CC1(C)C=Cc2c(cc3c(c2CCc2ccccc2)C2(C(=O)O3)c3c(CCc4ccccc4)cc(O)cc3OC2(C)C)O1 (racemic) | 1.4 | 2.6 | 5.4 | 5.8 | –
CC1(C)Oc2cc(O)cc(CCc3ccccc3)c2C2=C1O[C@@H]1c3c(CCc4ccccc4)cc(O)cc3OC(C)(C)[C@H]21 | 3.2 | 3.6 | 4.5 | 6.2 | –
